Measured values published in patent US12673945B2, “3-((8-((1H-pyrazol-4-yl)amino)imidazo[1,2-a]pyridin-3-yl)ethinyl)-n-phenylbenzamide derivative, method for preparing same, and pharmaceutical composition containing same as active ingredient for prevention or treatment of cancer” (DAEGU-GYEONGBUK MEDICAL INNOVATION FOUNDATION, priority 2020, dated 2026).

Columns and labels:
Assay in all cases: scanMAX Kinase panel (DiscoverX)
Format in all cases: binding
[1] = molecular target: T1, ABL1(F317I)-nonphosphorylated (Homo sapiens, UniProt P00519, F317I); conditions: read-out: % Cont @ 1 uM
T1 construct: purchased DiscoverX
Procedure: (§1) Among the example compounds of the present invention, the enzyme (kinase) selectivity of the selected compounds of Examples 1 and 4 was measured by requesting DiscoverX. At this time, the experiment was performed using a panel for scanMAX™ Kinase. The concentration of the drug treated to the enzyme was 1 μM in DMSO, and the percentage control (% control) was determined by the method shown in Equation 1 below. (Example Compound−Positive Control)/(Negative Control−Positive control)×100 [Equation 1]

[2] = molecular target: T2, ABL1(F317I)-phosphorylated (Homo sapiens, UniProt P00519, F317I); conditions: read-out: % Cont @ 1 uM
T2 construct: purchased DiscoverX
Procedure: as §1

[3] = molecular target: T3, ABL1(F317L)-phosphorylated (Homo sapiens, UniProt P00519, F317L); conditions: read-out: % Cont @ 1 uM
T3 construct: purchased DiscoverX
Procedure: as §1

[4] = molecular target: T4, ABL1(H396P)-phosphorylated (Homo sapiens, UniProt P00519, H396P); conditions: read-out: % Cont @ 1 uM
T4 construct: purchased DiscoverX
Procedure: as §1

[5] = molecular target: T5, ABL1(T315I)-nonphosphorylated (Homo sapiens, UniProt P00519, T315I); conditions: read-out: % Cont @ 1 uM
T5 construct: purchased DiscoverX
Procedure: as §1

[6] = molecular target: T6, ABL1(T315I)-phosphorylated (Homo sapiens, UniProt P00519, T315I); conditions: read-out: % Cont @ 1 uM
T6 construct: purchased DiscoverX
Procedure: as §1

AURKB = molecular target: T7, AURKB (Homo sapiens, UniProt Q96GD4); conditions: read-out: % Cont @ 1 uM
T7 construct: purchased DiscoverX scanMAX Kinase panel
Procedure: as §1

AURKC = molecular target: T8, AURKC (Homo sapiens, UniProt Q9UQB9); conditions: read-out: % Cont @ 1 uM
T8 construct: purchased DiscoverX scanMAX Kinase panel
Procedure: as §1

BLK = molecular target: T9, BLK (Homo sapiens, UniProt P51451); conditions: read-out: % Cont @ 1 uM
T9 construct: purchased DiscoverX scanMAX Kinase panel
Procedure: as §1

BMX = molecular target: T10, BMX (Homo sapiens, UniProt P51813); conditions: read-out: % Cont @ 1 uM
T10 construct: purchased DiscoverX scanMAX Kinase panel
Procedure: as §1

BRAF(V600E) = molecular target: T11, BRAF(V600E) (Homo sapiens, UniProt P15056, V600E); conditions: read-out: % Cont @ 1 uM
T11 construct: purchased DiscoverX scanMAX Kinase panel
Procedure: as §1

CDC2L2 = molecular target: T12, CDC2L2 (Homo sapiens, UniProt Q9UQ88); conditions: read-out: % Cont @ 1 uM
T12 construct: purchased DiscoverX scanMAX Kinase panel
Procedure: as §1

CDK7 = molecular target: T13, CDK7 (Homo sapiens, UniProt P50613); conditions: read-out: % Cont @ 1 uM
T13 construct: purchased DiscoverX scanMAX Kinase panel
Procedure: as §1

CSK = molecular target: T14, CSK (Homo sapiens, UniProt P41240)
T14 construct: purchased DiscoverX scanMAX Kinase panel
Procedure: as §1

EGFR(L747-T751del, Sins) = molecular target: T15, EGFR(L747-T751del, Sins) (Homo sapiens, UniProt P00533, DEL747-750/T751S)
T15 construct: purchased DiscoverX scanMAX Kinase panel
Procedure: as §1

EGFR(L858R) = molecular target: T16, EGFR(L858R) (Homo sapiens, UniProt P00533, L858R)
T16 construct: purchased DiscoverX scanMAX Kinase panel
Procedure: as §1

FER = molecular target: T17, FER (Homo sapiens, UniProt P16591); conditions: read-out: % Cont @ 1 uM
T17 construct: purchased DiscoverX scanMAX Kinase panel
Procedure: as §1

FES = molecular target: T18, FES (Homo sapiens, UniProt P07332); conditions: read-out: % Cont @ 1 uM
T18 construct: purchased DiscoverX scanMAX Kinase panel
Procedure: as §1

FGFR4 = molecular target: T19, FGFR4 (Homo sapiens, UniProt P22455); conditions: read-out: % Cont @ 1 uM
T19 construct: purchased DiscoverX scanMAX Kinase panel
Procedure: as §1

FLT3(ITD, F691L) = tested on: FLT3(ITD, F691L)
Procedure: as §1

FLT3(K663Q) = molecular target: T20, FLT3(K663Q) (Homo sapiens, UniProt P36888, K663Q); conditions: read-out: % Cont @ 1 uM
T20 construct: purchased DiscoverX scanMAX Kinase panel
Procedure: as §1

FLT3(N841I) = molecular target: T21, FLT3(N841I) (Homo sapiens, UniProt P36888, N841I); conditions: read-out: % Cont @ 1 uM
T21 construct: purchased DiscoverX scanMAX Kinase panel
Procedure: as §1

FRK = molecular target: T22, FRK (Homo sapiens, UniProt P42685); conditions: read-out: % Cont @ 1 uM
T22 construct: purchased DiscoverX scanMAX Kinase panel
Procedure: as §1

FYN = molecular target: T23, FYN (Homo sapiens, UniProt P06241); conditions: read-out: % Cont @ 1 uM
T23 construct: purchased DiscoverX scanMAX Kinase panel
Procedure: as §1

HPK1 = molecular target: T24, HPK1 (Homo sapiens, UniProt Q92918); conditions: read-out: % Cont @ 1 uM
T24 construct: purchased DiscoverX scanMAX Kinase panel
Procedure: as §1

IRAK1 = molecular target: T25, IRAK1 (Homo sapiens, UniProt P51617); conditions: read-out: % Cont @ 1 uM
T25 construct: purchased DiscoverX scanMAX Kinase panel
Procedure: as §1

KIT(V559D) = molecular target: T26, KIT(V559D) (Homo sapiens, UniProt P10721, V559D); conditions: read-out: % Cont @ 1 uM
T26 construct: purchased DiscoverX scanMAX Kinase panel
Procedure: as §1

MAP4K2 = molecular target: T27, MAP4K2 (Homo sapiens, UniProt Q12851); conditions: read-out: % Cont @ 1 uM
T27 construct: purchased DiscoverX scanMAX Kinase panel
Procedure: as §1

MERTK = molecular target: T28, MERTK (Homo sapiens, UniProt Q12866); conditions: read-out: % Cont @ 1 uM
T28 construct: purchased DiscoverX scanMAX Kinase panel
Procedure: as §1

MKNK1 = molecular target: T29, MKNK1 (Homo sapiens, UniProt Q9BUB5); conditions: read-out: % Cont @ 1 uM
T29 construct: purchased DiscoverX scanMAX Kinase panel
Procedure: as §1

SIK = molecular target: T30, SIK (Homo sapiens, UniProt P57059)
T30 construct: purchased DiscoverX scanMAX Kinase panel
Procedure: as §1

TAOK3 = molecular target: T31, TAOK3 (Homo sapiens, UniProt Q9H2K8); conditions: read-out: % Cont @ 1 uM
T31 construct: purchased DiscoverX scanMAX Kinase panel
Procedure: as §1

TIE1 = molecular target: T32, TIE1 (Homo sapiens, UniProt P35590); conditions: read-out: % Cont @ 1 uM
T32 construct: purchased DiscoverX scanMAX Kinase panel
Procedure: as §1

TIE2 = molecular target: T33, TIE2 (Homo sapiens, UniProt Q02763); conditions: read-out: % Cont @ 1 uM
T33 construct: purchased DiscoverX scanMAX Kinase panel
Procedure: as §1

TNK2 = molecular target: T34, TNK2 (Homo sapiens, UniProt Q07912); conditions: read-out: % Cont @ 1 uM
T34 construct: purchased DiscoverX scanMAX Kinase panel
Procedure: as §1

TXK = molecular target: T35, TXK (Homo sapiens, UniProt P42681); conditions: read-out: % Cont @ 1 uM
T35 construct: purchased DiscoverX scanMAX Kinase panel
Procedure: as §1

[7] = molecular target: T36, TYK2(JH1domain-catalytic) (Homo sapiens, UniProt P29597)
T36 construct: TYK2(JH1domain-catalytic); purchased DiscoverX scanMAX Kinase panel
Procedure: as §1

VEGFR2 = molecular target: T37, VEGFR2 (Homo sapiens, UniProt P35968); conditions: read-out: % Cont @ 1 uM
T37 construct: purchased DiscoverX scanMAX Kinase panel
Procedure: as §1

T30 sequence (P57059 whole entry): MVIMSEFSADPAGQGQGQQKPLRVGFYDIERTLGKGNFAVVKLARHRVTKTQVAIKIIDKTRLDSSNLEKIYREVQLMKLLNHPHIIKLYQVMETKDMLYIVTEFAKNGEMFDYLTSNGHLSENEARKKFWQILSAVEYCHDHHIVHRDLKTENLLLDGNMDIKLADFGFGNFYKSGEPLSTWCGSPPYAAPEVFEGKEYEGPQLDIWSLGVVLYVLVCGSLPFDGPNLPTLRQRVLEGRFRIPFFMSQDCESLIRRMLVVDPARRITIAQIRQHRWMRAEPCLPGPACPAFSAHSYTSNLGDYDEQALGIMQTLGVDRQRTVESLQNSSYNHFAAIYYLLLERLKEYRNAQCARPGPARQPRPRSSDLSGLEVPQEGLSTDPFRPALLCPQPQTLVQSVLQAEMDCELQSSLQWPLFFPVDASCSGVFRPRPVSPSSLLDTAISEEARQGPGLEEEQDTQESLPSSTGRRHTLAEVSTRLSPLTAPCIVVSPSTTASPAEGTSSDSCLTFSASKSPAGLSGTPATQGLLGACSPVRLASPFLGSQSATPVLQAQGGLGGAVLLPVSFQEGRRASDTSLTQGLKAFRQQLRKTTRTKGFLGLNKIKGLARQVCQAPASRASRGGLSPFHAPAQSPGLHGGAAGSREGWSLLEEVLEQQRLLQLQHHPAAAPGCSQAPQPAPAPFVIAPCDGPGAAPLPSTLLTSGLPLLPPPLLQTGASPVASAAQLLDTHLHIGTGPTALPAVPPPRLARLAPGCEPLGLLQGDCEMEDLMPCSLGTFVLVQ
T32 sequence (P35590 22-1138): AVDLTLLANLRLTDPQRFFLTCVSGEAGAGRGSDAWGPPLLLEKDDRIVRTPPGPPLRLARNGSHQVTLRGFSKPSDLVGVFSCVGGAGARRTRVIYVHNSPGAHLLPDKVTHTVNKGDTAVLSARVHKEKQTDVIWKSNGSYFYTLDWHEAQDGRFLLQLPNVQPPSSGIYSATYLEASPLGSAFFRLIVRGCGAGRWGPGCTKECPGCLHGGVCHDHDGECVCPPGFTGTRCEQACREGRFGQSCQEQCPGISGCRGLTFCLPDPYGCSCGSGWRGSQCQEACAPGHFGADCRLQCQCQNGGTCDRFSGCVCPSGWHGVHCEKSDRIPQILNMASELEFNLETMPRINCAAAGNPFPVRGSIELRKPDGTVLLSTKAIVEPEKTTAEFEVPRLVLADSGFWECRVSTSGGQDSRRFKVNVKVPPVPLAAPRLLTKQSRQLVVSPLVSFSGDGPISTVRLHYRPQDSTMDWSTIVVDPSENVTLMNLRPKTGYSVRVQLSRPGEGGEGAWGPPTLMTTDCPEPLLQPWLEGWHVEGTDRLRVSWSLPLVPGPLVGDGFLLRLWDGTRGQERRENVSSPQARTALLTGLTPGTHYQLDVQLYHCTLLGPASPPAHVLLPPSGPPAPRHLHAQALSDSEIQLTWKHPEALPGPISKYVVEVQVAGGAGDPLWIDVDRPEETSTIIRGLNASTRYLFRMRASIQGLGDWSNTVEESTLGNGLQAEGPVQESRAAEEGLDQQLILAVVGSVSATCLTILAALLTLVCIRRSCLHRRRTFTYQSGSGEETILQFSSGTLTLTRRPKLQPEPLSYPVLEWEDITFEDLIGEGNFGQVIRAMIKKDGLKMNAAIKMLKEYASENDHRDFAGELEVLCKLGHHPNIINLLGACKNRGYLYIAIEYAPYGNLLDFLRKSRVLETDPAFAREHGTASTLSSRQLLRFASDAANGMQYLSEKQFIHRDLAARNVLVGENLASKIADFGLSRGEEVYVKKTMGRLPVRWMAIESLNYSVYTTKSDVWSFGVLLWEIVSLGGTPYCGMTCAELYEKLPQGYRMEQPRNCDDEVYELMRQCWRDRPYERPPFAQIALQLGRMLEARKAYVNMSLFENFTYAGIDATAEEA
T22 sequence (P42685 whole entry): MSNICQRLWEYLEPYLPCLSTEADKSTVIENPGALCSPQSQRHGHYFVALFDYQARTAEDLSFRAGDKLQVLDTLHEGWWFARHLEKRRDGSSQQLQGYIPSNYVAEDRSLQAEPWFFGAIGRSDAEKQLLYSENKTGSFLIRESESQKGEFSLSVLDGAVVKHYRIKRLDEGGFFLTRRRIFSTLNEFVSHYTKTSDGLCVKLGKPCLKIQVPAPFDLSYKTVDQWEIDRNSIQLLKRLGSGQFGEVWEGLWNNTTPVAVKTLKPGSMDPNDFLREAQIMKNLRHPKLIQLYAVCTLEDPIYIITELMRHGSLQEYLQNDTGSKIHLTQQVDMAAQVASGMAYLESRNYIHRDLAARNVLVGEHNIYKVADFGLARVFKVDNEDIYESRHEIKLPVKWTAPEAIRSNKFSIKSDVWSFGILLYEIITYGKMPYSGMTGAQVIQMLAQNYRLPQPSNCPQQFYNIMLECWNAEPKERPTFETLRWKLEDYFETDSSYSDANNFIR
T17 sequence (P16591 whole entry): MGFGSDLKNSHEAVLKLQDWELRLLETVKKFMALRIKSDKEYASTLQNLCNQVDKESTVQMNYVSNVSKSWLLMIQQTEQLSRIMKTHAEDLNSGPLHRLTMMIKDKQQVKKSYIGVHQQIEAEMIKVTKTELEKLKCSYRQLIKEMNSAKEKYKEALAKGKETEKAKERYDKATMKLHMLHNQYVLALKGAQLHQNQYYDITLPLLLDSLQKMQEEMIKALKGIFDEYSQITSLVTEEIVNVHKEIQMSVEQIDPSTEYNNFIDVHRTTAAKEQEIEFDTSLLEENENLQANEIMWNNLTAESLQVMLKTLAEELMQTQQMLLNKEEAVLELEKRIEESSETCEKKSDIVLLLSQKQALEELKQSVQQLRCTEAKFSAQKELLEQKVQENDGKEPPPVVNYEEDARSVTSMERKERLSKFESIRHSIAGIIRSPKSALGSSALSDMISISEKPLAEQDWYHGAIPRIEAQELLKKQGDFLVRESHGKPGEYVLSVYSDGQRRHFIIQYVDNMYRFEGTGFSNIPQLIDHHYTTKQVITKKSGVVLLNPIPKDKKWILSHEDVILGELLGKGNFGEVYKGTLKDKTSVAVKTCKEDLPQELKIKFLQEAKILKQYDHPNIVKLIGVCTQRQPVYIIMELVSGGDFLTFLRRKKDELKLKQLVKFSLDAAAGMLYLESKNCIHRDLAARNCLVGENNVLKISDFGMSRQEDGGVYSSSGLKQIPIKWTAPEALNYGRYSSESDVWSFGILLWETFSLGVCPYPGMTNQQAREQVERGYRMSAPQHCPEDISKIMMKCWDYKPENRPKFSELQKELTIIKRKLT
T9 sequence (P51451 whole entry): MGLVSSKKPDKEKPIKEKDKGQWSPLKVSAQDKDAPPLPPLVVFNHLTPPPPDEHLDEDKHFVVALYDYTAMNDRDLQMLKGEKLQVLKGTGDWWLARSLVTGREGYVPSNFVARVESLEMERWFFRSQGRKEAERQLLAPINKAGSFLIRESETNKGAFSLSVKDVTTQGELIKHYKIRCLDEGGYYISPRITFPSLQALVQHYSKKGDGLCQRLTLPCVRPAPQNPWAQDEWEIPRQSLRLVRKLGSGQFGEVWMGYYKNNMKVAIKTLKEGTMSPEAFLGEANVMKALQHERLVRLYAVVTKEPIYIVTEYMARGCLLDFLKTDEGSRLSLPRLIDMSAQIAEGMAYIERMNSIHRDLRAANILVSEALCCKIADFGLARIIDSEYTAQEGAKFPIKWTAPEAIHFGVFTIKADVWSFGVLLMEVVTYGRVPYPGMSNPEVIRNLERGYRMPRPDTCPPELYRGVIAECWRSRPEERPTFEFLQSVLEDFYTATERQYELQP
T31 sequence (Q9H2K8 whole entry): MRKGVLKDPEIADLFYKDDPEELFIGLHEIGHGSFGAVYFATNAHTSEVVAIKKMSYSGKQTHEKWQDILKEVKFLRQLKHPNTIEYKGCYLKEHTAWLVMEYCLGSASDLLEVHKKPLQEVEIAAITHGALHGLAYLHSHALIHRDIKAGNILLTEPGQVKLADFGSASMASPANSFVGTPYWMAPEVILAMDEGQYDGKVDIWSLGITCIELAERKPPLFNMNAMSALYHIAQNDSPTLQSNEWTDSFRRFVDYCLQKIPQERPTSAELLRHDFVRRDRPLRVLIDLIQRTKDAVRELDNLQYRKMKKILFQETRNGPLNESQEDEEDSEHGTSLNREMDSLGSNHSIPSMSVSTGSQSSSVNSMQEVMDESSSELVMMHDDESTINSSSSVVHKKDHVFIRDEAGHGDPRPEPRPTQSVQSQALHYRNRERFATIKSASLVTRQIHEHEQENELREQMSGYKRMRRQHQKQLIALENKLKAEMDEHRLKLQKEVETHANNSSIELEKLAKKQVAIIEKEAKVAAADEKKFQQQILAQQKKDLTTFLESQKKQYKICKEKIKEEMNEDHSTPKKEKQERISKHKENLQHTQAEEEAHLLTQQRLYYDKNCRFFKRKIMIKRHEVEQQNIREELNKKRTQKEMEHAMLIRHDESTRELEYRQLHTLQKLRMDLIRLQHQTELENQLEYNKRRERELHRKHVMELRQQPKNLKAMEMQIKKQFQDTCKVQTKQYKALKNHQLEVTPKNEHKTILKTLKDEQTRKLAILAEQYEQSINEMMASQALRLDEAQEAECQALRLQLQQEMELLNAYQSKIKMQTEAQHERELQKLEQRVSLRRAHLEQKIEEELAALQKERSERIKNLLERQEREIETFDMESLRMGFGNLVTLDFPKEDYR
T13 sequence (P50613 whole entry): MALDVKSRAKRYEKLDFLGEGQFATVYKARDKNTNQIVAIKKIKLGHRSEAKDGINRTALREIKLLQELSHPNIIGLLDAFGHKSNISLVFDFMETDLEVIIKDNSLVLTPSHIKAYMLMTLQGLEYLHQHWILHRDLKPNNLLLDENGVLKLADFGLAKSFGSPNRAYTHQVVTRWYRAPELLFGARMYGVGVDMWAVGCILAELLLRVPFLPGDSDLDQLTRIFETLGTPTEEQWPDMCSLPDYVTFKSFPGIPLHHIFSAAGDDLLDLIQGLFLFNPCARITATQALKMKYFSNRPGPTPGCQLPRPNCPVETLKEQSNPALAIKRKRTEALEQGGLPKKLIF

Structure (SMILES) | remaining binding at 1 µM [1] | remaining binding at 1 µM [2] | remaining binding at 1 µM [3] | remaining binding at 1 µM [4] | remaining binding at 1 µM [5] | remaining binding at 1 µM [6] | remaining binding at 1 µM (AURKB) | remaining binding at 1 µM (AURKC) | remaining binding at 1 µM (BLK) | remaining binding at 1 µM (BMX) | remaining binding at 1 µM (BRAF(V600E)) | remaining binding at 1 µM (CDC2L2) | remaining binding at 1 µM (CDK7) | % Cont @ 1 uM (CSK) | % Cont @ 1 uM (EGFR(L747-T751del, Sins)) | % Cont @ 1 uM (EGFR(L858R)) | remaining binding at 1 µM (FER) | remaining binding at 1 µM (FES) | remaining binding at 1 µM (FGFR4) | % Cont @ 1 uM (FLT3(ITD, F691L)) | other results
Cc1cn(-c2cc(NC(=O)c3cc(C#Cc4cnc5c(Nc6cnn(C)c6)cccn45)c(C)cc3F)cc(C(C)(C)C#N)c2)cn1 [Example 1, N-(3-(2-cyanopropane-2-yl)-5-(4-methyl-1H-imidazol-1-yl)phenyl)-2-fluoro-4-methyl-5-((8-((1-methyl-1H-pyrazol-4-yl)amino)imidazo[1,2-a]pyridin-3-yl)ethynyl)benzamide] | 50% | 9.2% | 0% | 0.55% | 8.9% | 2.3% | 26% | 27% | 0.05% | 6.7% | 15% | 24% | 4.7% | 0.3% | 11% | 5.5% | 10% | 1.6% | 2.8% | 5.1% | remaining binding at 1 µM (FLT3(K663Q)): 10.8%; remaining binding at 1 µM (FLT3(N841I)): 0%; remaining binding at 1 µM (FRK): 1.6%; remaining binding at 1 µM (FYN): 3%; remaining binding at 1 µM (HPK1): 2%; percent of control binding at 1 µM (IRAK1): 27%; remaining binding at 1 µM (KIT(V559D)): 0%; remaining binding at 1 µM (MAP4K2): 2.5%; remaining binding at 1 µM (MERTK): 6.1%; remaining binding at 1 µM (MKNK1): 23%; % Cont @ 1 uM (SIK): 2%; remaining binding at 1 µM (TAOK3): 1.6%; remaining binding at 1 µM (TIE1): 3.5%; remaining binding at 1 µM (TIE2): 0.4%; remaining binding at 1 µM (TNK2): 31%; remaining binding at 1 µM (TXK): 1.6%; % Cont @ 1 uM [7]: 33%; remaining binding at 1 µM (VEGFR2): 6.1%
Cc1cn(-c2cc(NC(=O)c3cc(C#Cc4cnc5c(Nc6cnn(C)c6)cccn45)c(C)cc3F)cc(C(F)(F)F)c2)cn1 [Example 4, 2-fluoro-4-methyl-N-(3-(4-methyl-1H-imidazol-1-yl)-5-(trifluoromethyl)phenyl)-5-((8-((1-methyl-1H-pyrazol-4-yl)amino)imidazo[1,2-a]pyridin-3-yl)ethynyl)benzamide] | 2.8% | 22% | 1.2% | 9.6% | 10% | 16% | 57% | 39% | 0.4% | 3.6% | 48% | 83% | 71% | 0.8% | 28% | 57% | 71% | 55% | 53% | 37% | remaining binding at 1 µM (FLT3(K663Q)): 2.8%; remaining binding at 1 µM (FLT3(N841I)): 0%; remaining binding at 1 µM (FRK): 26%; remaining binding at 1 µM (FYN): 32%; remaining binding at 1 µM (HPK1): 41%; percent of control binding at 1 µM (IRAK1): 100%; remaining binding at 1 µM (KIT(V559D)): 0.25%; remaining binding at 1 µM (MAP4K2): 70%; remaining binding at 1 µM (MERTK): 3.3%; remaining binding at 1 µM (MKNK1): 78%; % Cont @ 1 uM (SIK): 14%; remaining binding at 1 µM (TAOK3): 12%; remaining binding at 1 µM (TIE1): 4.1%; remaining binding at 1 µM (TIE2): 0.7%; remaining binding at 1 µM (TNK2): 91%; remaining binding at 1 µM (TXK): 11%; % Cont @ 1 uM [7]: 72%; remaining binding at 1 µM (VEGFR2): 36%
